# Measured values from US20190125735A1, “INHIBITION OF P38 MAPK FOR THE TREATMENT OF CANCER” (Board of Regents, The University of Texas System, priority 2015, published 2019).
# Columns and labels:
# HMLER cells = test: Scratch/wound-healing assay, HMLER cells expressing FOXC2 variants; type: cell-based, human
# Experimental: For this, phosphomimetic FOXC2(S367E) and non-phosphorylatable FOXC2(S367A) mutants were generated and their ability to bestow mesenchymal and stem-cell traits relative to wild-type FOXC2 (referred to as FOXC2) was evaluated.
# MCF10A cells = test: TGFβ1-induced EMT in MCF10A cells, immunoblotting; type: cell-based, human; settings: TGFβ1-treated MCF10A, concomitant SB203580, 3 days
# Experimental: To ascertain whether inhibiting p38 impedes the initiation of EMT, two dynamic models of EMT induction were utilized. First, MCF10A immortalized human mammary epithelial cells were treated with TGFβ1 which elicits EMT. […] Second, an inducible EMT system was used wherein a fusion protein, comprising the EMT-inducing transcription factors Snail or Twist and the estrogen-binding domain of the estrogen receptor (ER), is stably expressed in epithelial HMLE cells (HMLE-Snail-ER, HMLE-Twist-ER). Addition of the ER-ligand tamoxifen (4-OHT) promotes nuclear translocation of the Snail-ER and Twist-ER proteins and elicits EMT. […] Similarly, p38 shRNA abolished the capacity of HMLE-Twist-ER cells to undergo EMT (FIG. 4E, compare lanes 4 to 8) and to form spheres (FIG. 16F) in response to 4-OHT treatment.
# Immortalized human mammary epithelial (HMLE) cells expressing empty vector (pWZL), Snail, Twist, Goosecoid (GSC), or an activated form of TGFβ1, V12H-Ras-transformed HMLE (HMLER) and HMLER-FOXC2 cells were maintained as previously described (Elenbaas et al., 2001) For 4-hydroxy-tamoxifen (4-OHT) treatment, HMLE-Snail-ER or HMLE-Twist-ER cells were exposed to 20 nM 4-OHT for the indicated number of days. MCF7, MDA-MB-231 and SUM159 human breast cancer cells and the 4T1 mouse mammary carcinoma cells were cultured as described. […]
# [1] = system: HMLE-Snail-ER and HMLE-Twist-ER cells; test: Sphere formation of 4-OHT-treated HMLE-Snail-ER and HMLE-Twist-ER cells; type: cell-based, human; settings: 4-OHT-treated cells, SB203580 exposure
# Experimental: (§1) FIGS. 15A-15L: p38 inhibition compromises the acquisition and maintenance of EMT and stem cell properties in vitro. […] Cells were harvested and the corresponding lysates were analyzed by immunoblotting for FOXC2, E-cadherin and mesenchymal markers. β-actin was used as a loading control. […] Cells were harvested at the indicated timepoints and the corresponding lysates were analyzed by immunoblotting for FOXC2, E-cadherin and mesenchymal markers. β-actin was used as a loading control. […] One thousand cells were seeded per well in ultra-low attachment plates and cultured for 7-10 days. Spheres with a diameter greater than 75 μm were counted. The data are reported as the number of spheres formed/1000 seeded cells±SEM. […] Data are presented as mean±SEM. […] The corresponding lysates were analyzed by immunoblotting for FOXC2, E-cadherin and mesenchymal markers. β-actin was used as a loading control. (F) The sphere-forming efficiency of 4-OHT-treated HMLE-Twist-ER cells, transduced with control shRNA (shControl) or p38 shRNA (shp38), was determined. […] (H) The sphere-forming efficiency of the indicated cells was determined in the presence of vehicle or SB203580. […] (J) The relative wound closure by the indicated cells, treated with vehicle or SB203580, was measured by image analysis and represented in a graphical format. […] Degradation of FITC-gelatin was quantified by image analysis. n=150 cells/sample. […]
# [2] = system: HMLE-Snail-ER and HMLE-Twist-ER cells; test: FACS CD44high/CD24low of 4-OHT-treated HMLE-Snail-ER and HMLE-Twist-ER cells; type: cell-based, human; settings: 4-OHT-treated cells, SB203580 exposure
# Experimental: as §1
# DU145 cells = test: Wound healing assay, DU145 cells; type: cell-based, human; settings: DU145, 5 μM, 7 days
# Experimental: Immunoblotting, Immunofluorescence, RTPCR, wound healing- and tumorsphere assays were performed as previously described (Sarkar et al., 2015). Cell viability (MTS) was assessed using the CellTiter96 Aqueous One-Solution Cell Proliferation Assay kit (Promega).
# [3] = system: BCR-ABL+ mouse ALL cells seeded on MSCs; test: Post-screening leukemic cell cluster formation underneath pretreated MSCs; type: cell-based; settings: imatinib 5 μM with SB203580 20 μM or dexamethasone 50 nM, 4 days + 24 hours
# From the text: Phase-contrast images of co-cultured MSCs and ALL cells were obtained using an Axio Observer.Z1 microscope, an AxioCam MR camera, and AxioVision software (Zeiss, Oberkochen, Germany). For screening, a cluster was defined as a group of more than five leukemic cells under the MSCs. The total number of leukemic cell clusters was the average number of clusters from three different fields (10× objective). For post-screening experiments, a cluster was defined as a group of more than 10 leukemic cells under the MSCs. The total number of leukemic cell clusters was the average number of clusters from 10 different fields (10× objective).
# BCR-ABL+ mouse ALL cells = settings: MSC co-culture
# Experimental: To measure cell proliferation, co-cultures of MSCs and luciferase-labeled leukemic cells were mixed with D-Luciferin (Biosynth, Itasca, Ill.) to a final concentration of 0.5 mg/mL. Samples were incubated at room temperature for 1 minute and were imaged with the IVIS Lumina imaging system (PerkinElmer, Waltham, Mass.).
smiles,measurement,setting,value
"C[S+]([O-])c1ccc(-c2nc(-c3ccc(F)cc3)c(-c3ccncc3)[nH]2)cc1 (stereo not drawn) [SB203580, 4-(4-Fluorophenyl)-2-(4-methylsulfinylphenyl)-5-(4-pyridyl) 1H-imidazole]",Decrease in wound-closure,HMLER cells; HMLER-FOXC2(S367E) cells,< 30%
same,Inhibition of migration (wound closure),HMLER cells; HMLER-FOXC2 cells,> 70%
same,Inhibition of migration (wound closure),HMLER cells; HMLER-vector cells,> 70%
same,"FOXC2, mesenchymal and epithelial markers",MCF10A cells,"suppresses the upregulation of FOXC2 and mesenchymal markers (fibronectin, vimentin) and prevents downregulation of the epithelial marker E-cadherin"
same,Sphere-forming potential,[1],failed to acquire sphere-forming potential
same,CD44^high/CD24^low marker profile,[2],failed to acquire
same,Migratory potential,DU145 cells,significant reduction in migratory potential
same,Leukemic cell clusters underneath imatinib-pretreated MSCs,[3],completely prevented leukemic cell cluster formation
same,Proliferation of leukemic cells,BCR-ABL+ mouse ALL cells,did not affect proliferation or apoptosis of leukemic cells
